Reference: patent EP4772500A1, “NOVEL ISOXAZOLE COMPOUND AS TM4SF5-SPECIFIC INHIBITOR AND USE THEREOF” (Seoul National University R&DB Foundation, priority 2023, dated 2025)

Tested on: SNU449T7 cells
Experiment: Subcutaneous xenograft liver cancer model in severely combined immunodeficient animals
Assay type: in vivo, NOD-SCID mice
Procedure: Cells expressing TM4SF5 (SNU449T7) were cultured in a cell incubator at 37°C and 5% CO2. The next day, the cells were detached by treating with a T/E (Trypsin/EDTA) solution and centrifuged at 150 × g for 3 minutes to obtain a cell pellet. Thereafter, the supernatant was removed, and the pellet was prepared by resuspension in phosphate buffered saline (PBS). For the generation of cancer tissue, 5 × 10^5 cells/100 µl were injected once subcutaneously into the right thigh area of 6-week-old male NOD/SCID mice. At this time, the animals were anesthetized by inhalation with […] isoflurane and injected. From the 15th day after the cell injection, drug ST-5-002 was intraperitoneally injected at 2.5 mg/kg of body weight at 100 µl per dose for a total of 8 times every 3 days. The body weight and tumor volume of the animals were measured every 3 days from the 12th day after the cell injection. The tumor volume was calculated as (length × width × width)/2 (mm^3) by measuring the length and width of the tumor. On the 36th day after the cell (SNU449T7) injection, the animals were sacrificed, and cancer tissues were obtained and analyzed.
SNU449T7 cells were subcutaneously injected into the thighs of 6-week-old male NOD/CB17-Prkdc^scid/J mice (NOD-SCID mice lacking or having non-functional immune cells such as T cells, B cells, and NK cells, n=10), at a dose of 5X10^5 cells. One week later, vehicle or the drug ST-5-002 was intravenously injected at a concentration of 2.5 mg/kg of body weight (mpk) twice a week. Three days after the 8th drug injection, the animals were sacrificed, cancer tissues were recovered and photographed, and immunohistochemistry, Western blot, and qRT-PCR analyses were performed.

## Cc1ccc(C(=O)Nc2ccc(-c3cc(-c4ccc(O)cc4)no3)cc2)cc1 [ST-5-002, N-(4-(3-(4-hydroxyphenyl)isoxazole-5-yl)phenyl)-4-methylbenzamide]
2.5 mg/kg of body weight (mpk), 8 injections (FIG. 24c)
  inhibitory efficacy in cancer formation in terms of tumor volume and weight: statistically significant inhibitory efficacy
2.5 mg/kg of body weight (mpk), 8 injections, vs vehicle (FIG. 24b)
  tumor size: decreased
Immunostaining (FIG. 24d)
  SLAMF7 staining in the small cancer areas: much more distinctly strong staining level
  degree of PD-L1 staining: decreased
  expression of TM4SF5: did not change significantly
  expressions of AFP and laminin γ2: significantly reduced
immunostaining, vs control group (FIG. 24d)
  staining level of F4/80 and expressions of CCL5 and CCL20: lower
